Measured values: patent US8901138B2, “Sulfoximine substituted quinazolines for pharmaceutical compositions” (Boehringer Ingelheim International GmbH, priority 2012, dated 2014)

What was measured:
[1] = biological target: T1, MNK2a (Homo sapiens, UniProt Q9HBH9); assay: MNK2a in vitro kinase assay (assay 1), ADP-Glo; type: biochemical; details: preactivated GST-MNK2a, 20 μM ATP, read-out: MNK2 IC50
T1 construct: made in house
Procedure: A. MNK2a In Vitro Kinase Assay (Assay 1)
ASSAY SETUP: The inhibition of kinase activity of MNK2a was assessed using preactivated GST-MNK2a. The white, 384-well OptiPlate F plates were purchased from Perkin Elmer. The ADP-Glo Kinase Assay (including ultra pure ATP) was purchased from Promega (V9103). Activated MNK2a was obtained as described in WO2011/104340. The unlabeled eIF4E peptide (NH2-[…]—CONH2) (SEQ ID NO: 1), differing from Seq. ID No. 5 of WO 2011/104340 by the C-terminal —CONH2 group, was purchased from Thermo Fisher Scientific. All other materials were of highest grade commercially available. Compounds are tested in either serial dilutions or single dose concentrations. The compound stock solutions are 10 mM in 100% DMSO The serial compound dilutions are prepared in 100% DMSO followed by 1:27.3 intermediate dilution in assay buffer. The final DMSO concentration in assay will be <3%. In the 384-well plates 3 μl of test compound from the intermediate dilution is mixed with 4 μl of the activated MNK2 enzyme (final concentration of 10 nM) and 4 μl of the peptide (final concentration of 25 μM)/ultra pure ATP (final concentration of 20 μM), all dissolved in assay buffer. This step is followed by an incubation time of 90 min, then 10 μl of ADP Glo reagent are added, followed by 40 min of incubation. Then 20 μl of kinase detection reagent are admixed. The plates are sealed and after an incubation period of 30 min, the luminescence signal is measured in an Envision reader to determine the amount of produced ADP. All incubation steps are performed at room temperature. The assay buffer consists of 20 mM HEPES, 2 mM DTT, 0.01% BSA, 20 mM MgCl2 and 0.1% Pluronic F-127.
Each assay microtiter plate contains wells with vehicle controls instead of compound (1% DMSO in water) as reference for the high signal (100% CTL, high signal), and wells containing a potent MNK2 inhibitor (final 20 μM, 1% DMSO) as reference for low signal (0% CTL, low signal).
The luminescent signal generated is proportional to the ADP concentration produced and is correlated with activated MNK2 activity. The analysis of the data is performed by the calculation of the percentage of ATP consumption of activated MNK2 in the presence of the test compound compared to the consumption of ATP in the presence of activated MNK2 without compound. (RLU(sample)−RLU(low control))*100/(RLU(high value)−RLU(low control)) [RLU=relative luminescence units]
An inhibitor of the MNK2 enzyme will give values between 100% CTL (no inhibition) and 0% CTL (complete inhibition). Values of more than 100% CTL are normally related to compound/sample specific physico-chemical properties (e.g. solubility, light absorbance, fluorescence).
IC50 values based on dose response curves are calculated with the AssayExplorer software.

[2] = biological target: MNK1a (Homo sapiens, UniProt Q9BUB5); assay: MNK1 in vitro kinase assay (assay 2), Z'-LYTE; type: biochemical; details: for IC50: pre-activated GST-MNK1a
MNK1a, sequence (Q9BUB5 1-424 isoform Q9BUB5-2): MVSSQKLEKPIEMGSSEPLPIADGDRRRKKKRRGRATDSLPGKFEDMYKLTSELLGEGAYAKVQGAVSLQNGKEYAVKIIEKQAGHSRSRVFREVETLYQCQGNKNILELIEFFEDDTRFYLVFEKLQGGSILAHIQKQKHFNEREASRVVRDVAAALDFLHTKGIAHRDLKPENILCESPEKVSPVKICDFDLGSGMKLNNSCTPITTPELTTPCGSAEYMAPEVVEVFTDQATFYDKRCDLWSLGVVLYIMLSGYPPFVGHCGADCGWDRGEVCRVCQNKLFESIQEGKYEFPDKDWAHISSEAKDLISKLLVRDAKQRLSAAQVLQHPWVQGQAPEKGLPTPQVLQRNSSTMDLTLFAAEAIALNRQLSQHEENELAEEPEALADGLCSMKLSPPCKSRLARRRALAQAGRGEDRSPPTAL
Excerpt: B. MNK1 In Vitro Kinase Assay (Assay 2)
MNK1 Data can be obtained from the MNK1 Z′-LYTE® assay. The MNK1 Z′-LYTE® screening protocol and assay conditions are also described on www.invitrogen.com.
The assay is described as follows:
The Z′-LYTE® biochemical assay employs a fluorescence-based, coupled-enzyme format and is based on the differential sensitivity of phosphorylated and non-phosphorylated peptides to proteolytic cleavage. The peptide substrate is labeled with two fluorophores—one at each end—that make up a FRET pair.
In the primary reaction, the kinase transfers the gamma-phosphate of ATP to a single tyrosine, serine or threonine residue in a synthetic FRET-peptide. In the secondary reaction, a site-specific protease recognizes and cleaves non-phosphorylated FRET-peptides. Phosphorylation of FRET-peptides suppresses cleavage by the Development Reagent. Cleavage disrupts FRET between the donor (i.e., coumarin) and acceptor (i.e., fluorescein) fluorophores on the FRET-peptide, whereas uncleaved, phosphorylated FRET-peptides maintain FRET. A ratiometric method, which calculates the ratio (the Emission Ratio) of donor emission to acceptor emission after excitation of the donor fluorophore at 400 nm, is used to quantitate reaction progress, as shown in the equation below. Emission Ratio=Coumarin Emission(445 nm)/Fluorescein Emission(520 nm)
ASSAY SETUP: The inhibition of kinase activity of MNK1a was assessed using pre-activated GST-MNK1a. The 2×MKNK1 (MNK1) mixture is prepared in 50 mM HEPES pH 7.5, 0.01% BRIJ-35, 10 mM MgCl2, 4 mM MnCl2, 1 mM EGTA, 2 mM DTT. The final 10 μL Kinase Reaction consists of 13.5-54 ng MKNK1 (MNK1) and 2 μM Ser/Thr 07 in 50 mM HEPES pH 7.5, 0.01% BRIJ-35, 10 mM MgCl2, 2 mM MnCl2, 1 mM EGTA, 1 mM DTT. After the 1 hour Kinase Reaction incubation, 5 μL of a 1:32768 dilution of Development Reagent A is added.
The Test Compounds are screened in 1% DMSO (final) in the well.
All Peptide/Kinase Mixtures are diluted to a 2× working concentration in the MNK1 Kinase Buffer.
All ATP Solutions are diluted to a 4× working concentration in Kinase Buffer (50 mM HEPES pH 7.5, 0.01% BRIJ-35, 10 mM MgCl2, 1 mM EGTA).
Development Reagent Solution:
The Development Reagent is diluted in Development Buffer
Bar-coded Corning, low volume NBS, 384-well plate (Corning Cat. #3676)
1. 2.5 μL-4× Test Compound
2. 5 μL-2× Peptide/Kinase Mixture
5. 60-minute Kinase Reaction incubation at room temperature
6. 5 μL-Development Reagent Solution
8. 60-minute Development Reaction incubation at room temperature
9. Read on fluorescence plate reader and analyze the data
The following equations are used for each set of data points: […]
Correction for Background Fluorescence: FSample−FITCFl Ctl
Emission Ratio (using values corrected for background fluorescence):Coumarin
Emission (445 nm)/Fluorescein Emission (520 nm)
% Phosphorylation (% Phos): 1−((Emission Ratio×F100%)−C100%)/((C0%−C100%)+[Emission Ratio×(F100%−F0%)])*100 % Inhibition: 1−(% PhosSample/% Phos0% Inhibition Ctl)*100 FI=Fluorescence Intensity C100%=Average Coumarin emission signal of the 100% Phos. Control C0%=Average Coumarin emission signal of the 0% Phos. Control F100%=Average Fluorescein emission signal of the 100% Phos. Control F0%=Average Fluorescein emission signal of the 0% Phos. Control Graphing Software
SelectScreen® Kinase Profiling Service uses XLfit from IDBS. The dose response curve is curve fit to model number 205 (sigmoidal dose-response model).

T1 sequence (Q9HBH9 whole entry): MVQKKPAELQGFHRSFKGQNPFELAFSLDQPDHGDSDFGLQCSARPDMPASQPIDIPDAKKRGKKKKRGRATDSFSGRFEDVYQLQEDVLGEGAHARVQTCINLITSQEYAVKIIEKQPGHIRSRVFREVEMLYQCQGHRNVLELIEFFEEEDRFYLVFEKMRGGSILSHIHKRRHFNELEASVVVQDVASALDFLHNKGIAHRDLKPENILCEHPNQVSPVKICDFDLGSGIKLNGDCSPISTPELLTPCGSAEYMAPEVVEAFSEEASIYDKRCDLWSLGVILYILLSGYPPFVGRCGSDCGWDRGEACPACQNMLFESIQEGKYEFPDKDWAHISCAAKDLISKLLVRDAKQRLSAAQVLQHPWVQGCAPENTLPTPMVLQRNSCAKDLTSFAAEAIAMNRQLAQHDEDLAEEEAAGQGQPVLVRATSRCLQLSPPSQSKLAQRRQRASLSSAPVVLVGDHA

| IC50 [1] [nM] | inhibition at 1 µM ([2]; compound concentration of 1 μM) [%] | % Inhibition of MNK1 ([2]; compound concentration of 1 μM, 1 µM) [%] | IC50 [2] [nM] | Structure (SMILES) |
| --- | --- | --- | --- | --- |
| 11 | 73 | – | – | Cc1cc(N=S(C)(C)=O)cc2ncnc(Nc3ccc(F)cc3O[C@@H]3CO[C@@H]4OCC[C@@H]43)c12 (racemic) [Example 2.62] |
| 5 | 88 | – | – | Cc1cc(N=S2(=O)CCCC2)cc2ncnc(Nc3ccc(F)cc3O[C@@H]3CO[C@@H]4OCC[C@@H]43)c12 (racemic) [Example 2.82] |
| 14 | 84 | – | – | COC1CCCC(Oc2cc(F)ccc2Nc2ncnc3cc(N=S(C)(C)=O)cc(C)c23)C1 (racemic) [Example 4.12] |
| 2 | 98 | – | – | CCS(C)(=O)=Nc1cc(C)c2c(Nc3ccc(F)cc3OC3CCOC3)ncnc2c1 (single isomer, unassigned) [Example 7.13] |
| 7 | – | 91 | – | CCS(C)(=O)=Nc1cc(C)c2c(Nc3ccc(F)cc3OC3CCOC3)ncnc2c1 (single isomer, unassigned) [Example 7.14] |
| 1 | 98 | – | – | Cc1cc(N=S(C)(C)=O)cc2ncnc(Nc3ccc(F)cc3O[C@@H]3CO[C@H]4[C@@H]3OC[C@@H]4O)c12 [Example 1.1] |
| 1 | – | – | 13 | CO[C@@H]1CO[C@H]2[C@@H]1OC[C@H]2Oc1cc(F)ccc1Nc1ncnc2cc(N=S(C)(C)=O)cc(Cl)c12 [Example 1.2] |
| 1 | 100 | – | 25 | CS(C)(=O)=Nc1cc(Cl)c2c(Nc3ccc(F)cc3O[C@@H]3CO[C@@H]4CCO[C@@H]43)ncnc2c1 [Example 1.4] |
| 6 | 90 | – | – | Cc1cc(N=S(C)(C)=O)cc2ncnc(Nc3cccnc3O[C@@H]3CO[C@H]4[C@@H]3OC[C@H]4O)c12 [Example 1.9] |
| – | 80 | – | – | Cc1cc(N=S(C)(C)=O)cc2ncnc(Nc3ccc(Br)cc3OC3CCOCC3)c12 [Example 1.10] |
| 21 | 92 | – | – | Cc1cc(N=S(C)(C)=O)cc2ncnc(Nc3ccccc3OC3CCOCC3)c12 [Example 1.12] |
| 3 | 95 | – | – | CS(C)(=O)=Nc1cc(C2CC2)c2c(Nc3ccc(F)cc3O[C@H]3CCOC3)ncnc2c1 [Example 1.15] |
| 2 | – | – | 39 | CS(C)(=O)=Nc1cc(Cl)c2c(Nc3ccc(F)cc3O[C@H]3CC[C@H](O)CC3)ncnc2c1 [Example 1.17] |
| 2 | 100 | – | – | Cc1cc(N=S(C)(C)=O)cc2ncnc(Nc3ccc(F)cc3O[C@@H]3CO[C@H]4[C@@H]3OC[C@H]4O)c12 [Example 1.18] |
| 106 | 42 | – | – | CS(C)(=O)=Nc1cc(N2CCC2)c2c(Nc3ccc(F)cc3O[C@H]3CCOC3)ncnc2c1 [Example 1.19] |
| 1 | 100 | – | – | CO[C@@H]1CO[C@H]2[C@@H]1OC[C@H]2Oc1cc(F)ccc1Nc1ncnc2cc(N=S(C)(C)=O)cc(Br)c12 [Example 1.20] |

| IC50 [1] [nM] | inhibition at 1 µM ([2]; compound concentration of 1 μM) [%] | % Inhibition of MNK1 ([2]; compound concentration of 1 μM, 1 µM) [%] | IC50 [2] [nM] | Structure (SMILES) |
| --- | --- | --- | --- | --- |
| 2 | – | – | 21 | CS(C)(=O)=Nc1cc(C(F)F)c2c(Nc3ccc(F)cc3O[C@H]3CCOC3)ncnc2c1 [Example 1.21] |
| 25 | 56 | – | – | CS(C)(=O)=Nc1cc(O)c2c(Nc3ccc(F)cc3O[C@H]3CCOC3)ncnc2c1 [Example 1.22] |
| 4 | 94 | – | – | CS(C)(=O)=Nc1cc(OC(F)F)c2c(Nc3ccc(F)cc3O[C@H]3CCOC3)ncnc2c1 [Example 1.23] |
| – | 47 | – | – | Cc1cc(N=S(C)(C)=O)cc2ncnc(Nc3ccc(F)cc3O[C@H]3CO[C@H]4[C@@H]3OC[C@H]4O)c12 [Example 2.19] |
| – | 81 | – | – | Cc1cc(N=S2(=O)CCN(C(=O)OC(C)(C)C)CC2)cc2ncnc(Nc3ccc(F)cc3O[C@H]3CO[C@H]4[C@@H]3OC[C@H]4O)c12 [Example 2.21] |
| – | 50 | – | – | CC(C)(C)OC(=O)N1CC[C@@H](Oc2cc(F)ccc2Nc2ncnc3cc(N=S(C)(C)=O)cc(F)c23)C1 [Example 2.32] |
| – | 88 | – | – | CO[C@H]1CC[C@H](Oc2cc(F)ccc2Nc2ncnc3cc(N=S(C)(C)=O)cc(F)c23)CC1 [Example 2.46] |
| – | 60 | – | – | Cc1cc(N=S(C)(C)=O)cc2ncnc(Nc3ccc(F)cc3O[C@@H]3CCN(C(=O)OC(C)(C)C)C3)c12 [Example 2.52] |
| – | 85 | – | – | COCCS(C)(=O)=Nc1cc(C)c2c(Nc3ccc(F)cc3O[C@H]3CCOC3)ncnc2c1 (stereo partly drawn) [Example 2.63] |
| – | 100 | – | – | Cc1cc(N=S2(=O)CCCC2)cc2ncnc(Nc3ccc(F)cc3O[C@H]3CCOC3)c12 [Example 2.85] |
| – | 89 | – | – | CCS(=O)(CC)=Nc1cc(C)c2c(Nc3ccc(F)cc3O[C@@H]3CO[C@H]4[C@@H]3OC[C@H]4O)ncnc2c1 [Example 2.86] |
| – | 92 | – | – | Cc1cc(N=S2(=O)CCCC2)cc2ncnc(Nc3ccc(F)cc3O[C@@H]3CCNC3)c12 [Example 3.4] |
| – | 75 | – | – | Cc1cc(N=S(C)(C)=O)cc2ncnc(Nc3ccc(F)cc3OC3CCOC3=O)c12 (stereo not drawn) [Example 4.13] |
| – | 91 | – | – | Cc1cc(N=S(C)(C)=O)cc2ncnc(Nc3cccnc3O[C@@H]3CCCN(CC(C)(C)O)C3)c12 [Example 6.5] |
| – | 70 | – | – | CC(C)(O)CN1CCC[C@@H](Oc2ncccc2Nc2ncnc3cc(N=S(C)(C)=O)cc(F)c23)C1 [Example 6.19] |
| – | 72 | – | – | COC(=O)N1CCS(=O)(=Nc2cc(C)c3c(Nc4ccc(F)cc4O[C@H]4CC[C@H](OC)CC4)ncnc3c2)CC1 [Example 7.3] |
